In the experiment the target is T1, PPME (Homo sapiens, UniProt Q9Y570).
T1 construct: made in house; host or cells: E. coli BL21(DE3)
T1 sequence (Q9Y570 1-386): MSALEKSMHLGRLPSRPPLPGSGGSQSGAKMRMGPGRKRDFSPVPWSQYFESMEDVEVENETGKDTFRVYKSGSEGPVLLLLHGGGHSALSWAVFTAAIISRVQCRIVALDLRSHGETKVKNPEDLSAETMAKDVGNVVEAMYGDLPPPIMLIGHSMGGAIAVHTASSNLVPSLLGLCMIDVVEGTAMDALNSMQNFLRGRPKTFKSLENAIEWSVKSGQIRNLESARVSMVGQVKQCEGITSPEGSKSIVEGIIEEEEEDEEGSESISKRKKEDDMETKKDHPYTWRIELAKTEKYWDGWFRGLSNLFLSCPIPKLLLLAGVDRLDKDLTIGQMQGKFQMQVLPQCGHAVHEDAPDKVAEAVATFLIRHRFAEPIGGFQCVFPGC
Description: PP2A methylesterase (PPME) inhibition, filter paper method. The format is biochemical. As to the method:
This example provides a method by which the rate of demethylation of methyl PP2A can be determined. For the composition of ^3H-labeled methyl-PP2A, 100 μl reaction mixtures consisting of purified PP2A AC dimers (prepared as described in Example 3), purified PPMT (prepared as described in Example 1), 50 mM MOPS buffer pH 7.2, 5 mM DTT, 1 mM EDTA, 1 mg/ml BSA and 10 μl ^3H-SAM were incubated at 37° C. for 30 min and loaded onto a desalting column pre-equilibrated in 50 mM MOPS-Na pH 7.2, 1 mM DTT, 1 mM EDTA, 200 mM NaCl and 5% glycerol. The sample was eluted with the same buffer, 50 μl fractions were collected, and each aliquot analyzed by scintillation counting. Fractions containing ^3H-methyl PP2A were collected and stored at 4° C.
The following assay (see Lee, J. et al., Proc. Nat'l Acad. Sci. U.S.A. 93(12):[…] (1996)) is referred to subsequently as the “filter paper method”. The test compound was incubated with purified PPME (prepared as described in Example 2) and purified ^3H-methyl-labeled PP2A (the preparation of which is described in the preceding paragraph) in Buffer C (50 mM MOPS, 1 mM EDTA, 1 mM DTT buffer at pH 7.2, as in Example 3). After incubation at 37° C. for a fixed time (typically 10 minutes), the reaction mixture was spotted onto a 1 cm^2 piece of Whatman 3 mM filter paper. The filter paper was immediately dipped in 10% ice-cold TCA, and then kept on ice in a plastic tray. After all reactions were run, the filter papers were washed at 4° C. with stirring in a large excess of 10% TCA, similarly washed twice at 4° C. with 100% methanol, and then vacuum dried at 45° C. for 1 hr to remove the ^3H-methanol produced by PP2A demethylation. The dried filter papers then were assayed for radioactivity by submerging them in scintillation fluid and performing scintillation counting. This procedure is easily adapted to a 96-well format to allow high-throughput screening (described below).
As used herein to refer to assay results, the term “inhibition activity” refers to the following relationship: Inhibition activity=1−(amount of methyl-PP2A carboxyl demethylated with inhibitor)/(amount of methyl-PP2A carboxyl […] without inhibitor).

[1] abbreviates: PPME at 85 nM, IC50 higher than the value tested, read-out: IC50.

Where two headings read alike, the source gives them in different places.

In the case of `Cc1c(C)c2c(c(C)c1O)CCC(C)(CCCC(C)CCCC(C)CCCC(C)C)O2` (racemic) [#12-1, DL-α-tocopherol], for the setting “PPME at 85 nM, read-out: IC50”, the IC50 stood at 35 µM.
On the same count and under the same terms, in the case of `COc1cc(/C=C/C(=O)CC(=O)/C=C/c2ccc(O)c(OC)c2)ccc1O` [CCM-L, Curcumin] it was 771 µM.
Turning to `O=C(/C=C/c1ccc(O)c(O)c1)O[C@@H]1C[C@](O)(C(=O)O)C[C@@H](O)[C@H]1O` [CGA, Chlorogenic acid], under setting [1], the IC50 is over 1000 µM.
In the case of `O=C(O)/C=C/c1ccc(O)c(O)c1` [DHCA, 3,4-Dihdroxycinnamic acid], the IC50 under setting [1] is over 1000 µM.
The same measure, in the same setting: with `COc1cc(C=CC(=O)O)ccc1O` [HMCA, 4-Hydroxy-3-methoxycinnamic acid] the figure was over 1000 µM; with `O=C(O)[C@]1(O)C[C@@H](O)[C@@H](O)[C@H](O)C1` [QA, D(−)-Quinic acid], over 10000 µM.
Turning to `Cn1c(=O)c2c(ncn2C)n(C)c1=O` [caffeine], the IC50 (read-out: concentration required for 50% inhibition of PPME) is over 440 µM.
